Laboratory results published in ChEMBL document CHEMBL1201862, “PubChem BioAssay data set” (2004).
Activity calls are given as the source filed them.

Legend:
[1] = cells; type: functional
[2] = biological target: T1, Low molecular weight phosphotyrosine protein phosphatase (Homo sapiens, UniProt P24666); type: functional; conditions: read-out: IC50_Mean
T1 sequence (P24666 whole entry): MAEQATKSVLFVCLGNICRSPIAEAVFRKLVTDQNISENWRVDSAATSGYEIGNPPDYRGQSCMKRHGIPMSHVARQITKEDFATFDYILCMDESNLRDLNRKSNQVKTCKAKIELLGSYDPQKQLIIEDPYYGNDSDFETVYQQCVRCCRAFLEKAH

[3] = biological target: T2, Glycogen synthase kinase-3 alpha (Homo sapiens, UniProt P49840); test: Inhibition of Human GSK-3 alpha Activity Measured in Biochemical System Using Microfluidics - 2063-06_Inhibitor_Dose_DryPowder_Activity_Set2. [Related pubchem assays (depositor defined):AID2709]
[4] = biological target: T1, Low molecular weight phosphotyrosine protein phosphatase; type: functional; conditions: read-out: IC50_Mean; remark: listed apart in the source
[5] = biological target: Glycogen synthase kinase-3 beta (Homo sapiens, UniProt P49841); test: Inhibition of Human GSK-3 beta Activity Measured in Biochemical System Using Microfluidics - 2063-05_Inhibitor_Dose_DryPowder_Activity_Set2. [Related pubchem assays (depositor defined):AID2709]
[6] = biological target: T3, High affinity choline transporter 1 (Homo sapiens, UniProt Q9GZV3); test: CHT activators, dose response, cell-based, 10-point CRC, membrane potential dye (AID 602376); type: functional
T3 sequence (Q9GZV3 whole entry): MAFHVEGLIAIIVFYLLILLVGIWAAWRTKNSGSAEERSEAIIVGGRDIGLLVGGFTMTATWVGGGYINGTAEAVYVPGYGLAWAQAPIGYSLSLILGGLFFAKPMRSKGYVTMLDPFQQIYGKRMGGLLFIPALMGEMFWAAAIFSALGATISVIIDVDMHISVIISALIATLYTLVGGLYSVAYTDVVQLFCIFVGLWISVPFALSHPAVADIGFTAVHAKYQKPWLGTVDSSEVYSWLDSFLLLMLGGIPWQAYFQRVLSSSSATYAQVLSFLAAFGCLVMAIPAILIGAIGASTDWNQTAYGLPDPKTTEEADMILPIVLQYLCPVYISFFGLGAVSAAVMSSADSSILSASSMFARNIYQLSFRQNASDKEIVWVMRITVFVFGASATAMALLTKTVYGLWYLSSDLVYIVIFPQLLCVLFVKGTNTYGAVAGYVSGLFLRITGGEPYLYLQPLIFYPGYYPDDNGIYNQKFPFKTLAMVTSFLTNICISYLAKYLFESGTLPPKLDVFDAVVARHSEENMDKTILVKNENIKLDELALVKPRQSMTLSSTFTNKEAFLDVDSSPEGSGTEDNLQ

[7] = test system: Streptococcus; test: Group A Streptococcus viability loss, dose response, counter-screen for streptokinase expression inhibitor project, luminescence, BacTiterGlo (AID 1915); type: functional, organism-based;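 note: potency for reduction of bacterial viability or growth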
[8] = biological target: 26S proteasome non-ATPase regulatory subunit 14 (Homo sapiens, UniProt O00487); test: inhibition of proteasome subunit RPN11 – biochemical, fluorescence polarization, uHTS hits, confirmation (AID 602368); type: functional
[9] = cytotoxicity toward NIH3T3 fibroblasts, dose response, counter-screen, cell-based, ATP luminescence, mouse fibroblasts (AID 2010); type: functional;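 note: cells exposed to compound for about 90 hours before reading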
[10] = inhibitors of intracellular T. cruzi replication, confirmation, NIH3T3 host cells, beta-gal luminescence (AID 2044); type: functional, cell-based;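 note: intracellular parasites grown in NIH/3T3 mouse fibroblasts as host cells; luminescent beta-galactosidase reporter signal from transgenic T. cruzi replicating inside host cells; inhibitors lower the luminescence signal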
[11] = biological target: 72 kDa type IV collagenase (Homo sapiens, UniProt P08253); test: Dose Response validation of uHTS RPN11 inhibitor hits using a MMP-2 Fluorescence assay.; type: functional
[12] = test system: Streptococcus sp. 'group A'; test: growth inhibition of control SK(-) GAS strain, dose response, counter-screen for streptokinase expression inhibitor project, luminescence, kanamycin, BacTiterGlo, confirmation (AID 1900); type: functional, organism-based
[13] = biological target: Prothrombin (Bos taurus, UniProt P00735); test: thrombin inhibition, dose response, biochemical, fluorescence polarization, uHTS hits (AID 602369); type: functional
[14] = biological target: Casein kinase I isoform alpha (Homo sapiens, UniProt P48729); type: functional
[15] = biological target: Mitogen-activated protein kinase 14 (Homo sapiens, UniProt Q16539); type: functional;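 note: part of a kinome-wide panel, MAPK14 entry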
[16] = biological target: Calcium/calmodulin-dependent protein kinase type II subunit alpha (Homo sapiens, UniProt Q9UQM7); test: Navigating the Kinome. Panel member name: CAMK2A; type: functional
[17] = biological target: T2, Glycogen synthase kinase-3 alpha; type: functional
[18] = biological target: Serine/threonine-protein kinase PAK 4 (Homo sapiens, UniProt O96013); type: functional;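 note: value obtained within a kinome profiling panel in which PAK4 was one of the panel members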
[19] = biological target: Tyrosine-protein kinase JAK3 (Homo sapiens, UniProt P52333); type: functional
[20] = biological target: Dual specificity protein kinase CLK4 (Homo sapiens, UniProt Q9HAZ1); type: functional
[21] = biological target: Cyclin-dependent kinase 7 (Homo sapiens, UniProt P50613); type: functional;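 note: value comes from a kinome-wide kinase profiling panel in which CDK7 is one member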
[22] = biological target: Serine/threonine-protein kinase D3 (Homo sapiens, UniProt O94806); type: functional;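 note: determined within a kinase panel screen, with PRKCN as the panel member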
[23] = biological target: Activin receptor type-1 (Homo sapiens, UniProt Q04771); test: Navigating the Kinome. Panel member name: ACVR1; type: functional
[24] = biological target: Dual specificity tyrosine-phosphorylation-regulated kinase 1A (Homo sapiens, UniProt Q13627); type: functional;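 note: measured against DYRK1A as one member of a broad kinome profiling panel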
[25] = biological target: LIM domain kinase 1 (Homo sapiens, UniProt P53667); test: Navigating the Kinome. Panel member name: LIMK1; type: functional
[26] = biological target: G protein-coupled receptor kinase 5 (Homo sapiens, UniProt P34947); test: Navigating the Kinome. Panel member name: GPRK5; type: functional
[27] = biological target: Dual specificity tyrosine-phosphorylation-regulated kinase 1B (Homo sapiens, UniProt Q9Y463); test: Navigating the Kinome. Panel member name: DYRK1B; type: functional
[28] = biological target: Fibroblast growth factor receptor 1 (Homo sapiens, UniProt P11362); type: functional
[29] = biological target: Dual specificity protein kinase CLK2 (Homo sapiens, UniProt P49760); type: functional
[30] = biological target: Aurora kinase B (Homo sapiens, UniProt Q96GD4); type: functional
[31] = biological target: T4, DNA dC->dU-editing enzyme APOBEC-3A (Homo sapiens, UniProt P31941); test: SAR analysis of small molecule inhibitors of APOBEC3A DNA Deaminase via a fluorescence-based single-stranded DNA deaminase assay - Set 2.; type: functional; conditions: read-out: IC50_Mean
[32] = biological target: T5, DNA dC->dU-editing enzyme APOBEC-3G (Homo sapiens, UniProt Q9HC16); test: SAR analysis of small molecule inhibitors of APOBEC3G DNA Deaminase via a fluorescence-based single-stranded DNA deaminase assay - Set 2.; type: functional; conditions: read-out: IC50_Mean
[33] = biological target: Sphingosine 1-phosphate receptor 4 (Homo sapiens, UniProt O95977); test: Late-stage fluorescence-based dose-response cell-based counterscreen assay to identify agonists of the Sphingosine 1-Phosphate Receptor 3 (S1P3): Sphingosine 1-Phosphate Receptor 4 (S1P4) agonist assay.; type: functional
[34] = biological target: Sphingosine 1-phosphate receptor 2 (Homo sapiens, UniProt O95136); test: Late-stage fluorescence-based dose-response cell-based counterscreen assay to identify agonists of the Sphingosine 1-Phosphate Receptor 3 (S1P3): Sphingosine 1-Phosphate Receptor 2 (S1P2) agonist assay.; type: functional
[35] = biological target: T4, DNA dC->dU-editing enzyme APOBEC-3A; test: SAR analysis of small molecule inhibitors of APOBEC3A DNA Deaminase via a fluorescence-based single-stranded DNA deaminase assay.; type: functional; conditions: read-out: IC50_Mean
[36] = biological target: T5, DNA dC->dU-editing enzyme APOBEC-3G; test: APOBEC3G deaminase inhibitors, SAR follow-up, biochemical, fluorescence, single-stranded DNA substrate (AID 602136); type: functional; conditions: read-out: IC50_Mean

T2 sequence (P49840 whole entry): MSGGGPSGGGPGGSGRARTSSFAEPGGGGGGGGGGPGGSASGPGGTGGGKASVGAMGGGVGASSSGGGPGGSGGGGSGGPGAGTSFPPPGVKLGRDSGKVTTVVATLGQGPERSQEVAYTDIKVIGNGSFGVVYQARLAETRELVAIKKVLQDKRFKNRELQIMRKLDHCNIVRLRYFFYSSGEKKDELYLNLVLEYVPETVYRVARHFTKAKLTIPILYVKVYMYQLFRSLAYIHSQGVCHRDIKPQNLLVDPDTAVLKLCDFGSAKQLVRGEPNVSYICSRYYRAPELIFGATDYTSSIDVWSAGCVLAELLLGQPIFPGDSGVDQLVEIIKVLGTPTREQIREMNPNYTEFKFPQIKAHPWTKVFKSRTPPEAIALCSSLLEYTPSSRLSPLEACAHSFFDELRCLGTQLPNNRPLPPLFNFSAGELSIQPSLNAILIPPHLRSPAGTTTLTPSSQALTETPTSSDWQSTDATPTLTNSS
T4 sequence (P31941 whole entry): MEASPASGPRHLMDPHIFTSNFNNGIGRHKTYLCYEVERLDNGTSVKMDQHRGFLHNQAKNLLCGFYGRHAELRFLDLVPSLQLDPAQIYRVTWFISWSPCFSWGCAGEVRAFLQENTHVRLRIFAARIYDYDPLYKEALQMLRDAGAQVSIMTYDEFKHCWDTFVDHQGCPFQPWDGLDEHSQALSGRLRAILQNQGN
T5 sequence (Q9HC16 whole entry): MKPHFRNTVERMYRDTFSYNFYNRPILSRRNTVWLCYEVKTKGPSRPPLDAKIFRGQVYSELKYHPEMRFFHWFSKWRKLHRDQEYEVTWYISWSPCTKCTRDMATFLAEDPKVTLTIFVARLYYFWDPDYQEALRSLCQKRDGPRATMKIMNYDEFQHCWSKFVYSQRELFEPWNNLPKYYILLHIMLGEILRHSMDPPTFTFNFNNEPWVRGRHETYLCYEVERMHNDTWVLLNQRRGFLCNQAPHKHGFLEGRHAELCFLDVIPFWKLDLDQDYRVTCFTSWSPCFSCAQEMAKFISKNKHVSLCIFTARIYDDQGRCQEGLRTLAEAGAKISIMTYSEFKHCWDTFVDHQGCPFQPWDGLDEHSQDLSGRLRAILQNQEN
Sphingosine 1-phosphate receptor 4, sequence (O95977 whole entry): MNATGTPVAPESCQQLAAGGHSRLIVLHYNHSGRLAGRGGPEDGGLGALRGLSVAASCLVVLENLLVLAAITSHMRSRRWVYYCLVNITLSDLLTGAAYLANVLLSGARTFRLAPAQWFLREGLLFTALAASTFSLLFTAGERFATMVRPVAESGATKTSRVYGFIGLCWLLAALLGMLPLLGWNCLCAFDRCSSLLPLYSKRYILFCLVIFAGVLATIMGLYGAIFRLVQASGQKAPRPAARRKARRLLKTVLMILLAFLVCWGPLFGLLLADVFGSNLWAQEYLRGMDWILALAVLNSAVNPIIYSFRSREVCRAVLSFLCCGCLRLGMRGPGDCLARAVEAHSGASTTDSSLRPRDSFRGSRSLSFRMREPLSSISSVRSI
Tyrosine-protein kinase JAK3, sequence (P52333 whole entry): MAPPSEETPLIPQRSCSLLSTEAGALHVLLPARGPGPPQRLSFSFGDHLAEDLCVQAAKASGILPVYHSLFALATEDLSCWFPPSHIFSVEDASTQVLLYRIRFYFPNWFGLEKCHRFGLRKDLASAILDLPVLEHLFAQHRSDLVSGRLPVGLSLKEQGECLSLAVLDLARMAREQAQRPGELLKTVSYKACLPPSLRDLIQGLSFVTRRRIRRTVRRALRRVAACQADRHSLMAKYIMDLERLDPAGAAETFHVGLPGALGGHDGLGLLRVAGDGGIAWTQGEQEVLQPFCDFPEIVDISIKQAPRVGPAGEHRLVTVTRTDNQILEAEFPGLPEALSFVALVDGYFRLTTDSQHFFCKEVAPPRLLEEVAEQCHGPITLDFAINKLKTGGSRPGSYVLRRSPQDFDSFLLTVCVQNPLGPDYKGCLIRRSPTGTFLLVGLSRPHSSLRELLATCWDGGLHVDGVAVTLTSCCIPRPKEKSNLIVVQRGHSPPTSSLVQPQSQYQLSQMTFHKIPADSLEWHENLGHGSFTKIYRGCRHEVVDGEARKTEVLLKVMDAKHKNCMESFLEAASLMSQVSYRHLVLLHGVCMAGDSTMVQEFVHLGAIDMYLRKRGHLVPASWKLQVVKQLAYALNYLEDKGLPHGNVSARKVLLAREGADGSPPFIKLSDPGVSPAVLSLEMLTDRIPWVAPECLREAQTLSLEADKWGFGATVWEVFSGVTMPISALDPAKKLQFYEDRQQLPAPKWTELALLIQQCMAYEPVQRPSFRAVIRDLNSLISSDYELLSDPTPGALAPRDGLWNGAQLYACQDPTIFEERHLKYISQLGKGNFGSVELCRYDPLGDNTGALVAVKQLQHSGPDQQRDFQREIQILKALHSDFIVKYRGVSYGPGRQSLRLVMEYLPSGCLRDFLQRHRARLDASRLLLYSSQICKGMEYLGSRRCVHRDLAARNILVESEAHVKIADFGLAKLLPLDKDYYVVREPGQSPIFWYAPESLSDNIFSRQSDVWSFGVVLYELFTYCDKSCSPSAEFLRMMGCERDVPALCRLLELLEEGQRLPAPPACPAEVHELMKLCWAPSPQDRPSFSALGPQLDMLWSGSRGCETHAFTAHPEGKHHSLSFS
Activin receptor type-1, sequence (Q04771 whole entry): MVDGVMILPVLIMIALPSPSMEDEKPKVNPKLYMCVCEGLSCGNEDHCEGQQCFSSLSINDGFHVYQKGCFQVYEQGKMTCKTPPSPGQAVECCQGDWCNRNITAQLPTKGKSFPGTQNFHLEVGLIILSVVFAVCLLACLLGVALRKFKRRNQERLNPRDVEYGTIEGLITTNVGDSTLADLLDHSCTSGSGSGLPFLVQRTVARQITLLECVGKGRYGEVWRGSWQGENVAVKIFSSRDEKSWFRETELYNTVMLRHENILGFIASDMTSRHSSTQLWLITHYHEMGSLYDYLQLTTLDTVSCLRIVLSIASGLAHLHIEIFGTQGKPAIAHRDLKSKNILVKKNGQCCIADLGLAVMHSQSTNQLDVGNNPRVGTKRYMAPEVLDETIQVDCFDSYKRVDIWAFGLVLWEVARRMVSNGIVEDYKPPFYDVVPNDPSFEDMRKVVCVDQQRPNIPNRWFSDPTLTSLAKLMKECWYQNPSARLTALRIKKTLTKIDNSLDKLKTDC
Mitogen-activated protein kinase 14, sequence (Q16539 whole entry): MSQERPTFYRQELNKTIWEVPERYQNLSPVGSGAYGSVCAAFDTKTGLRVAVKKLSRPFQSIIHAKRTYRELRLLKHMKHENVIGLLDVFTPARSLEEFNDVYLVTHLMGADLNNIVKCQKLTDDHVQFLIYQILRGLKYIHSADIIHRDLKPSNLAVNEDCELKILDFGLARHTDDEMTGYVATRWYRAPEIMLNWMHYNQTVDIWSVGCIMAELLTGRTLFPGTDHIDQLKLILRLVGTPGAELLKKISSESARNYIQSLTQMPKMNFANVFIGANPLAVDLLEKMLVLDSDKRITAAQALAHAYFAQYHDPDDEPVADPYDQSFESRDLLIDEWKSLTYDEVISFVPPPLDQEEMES
Fibroblast growth factor receptor 1, sequence (P11362 whole entry): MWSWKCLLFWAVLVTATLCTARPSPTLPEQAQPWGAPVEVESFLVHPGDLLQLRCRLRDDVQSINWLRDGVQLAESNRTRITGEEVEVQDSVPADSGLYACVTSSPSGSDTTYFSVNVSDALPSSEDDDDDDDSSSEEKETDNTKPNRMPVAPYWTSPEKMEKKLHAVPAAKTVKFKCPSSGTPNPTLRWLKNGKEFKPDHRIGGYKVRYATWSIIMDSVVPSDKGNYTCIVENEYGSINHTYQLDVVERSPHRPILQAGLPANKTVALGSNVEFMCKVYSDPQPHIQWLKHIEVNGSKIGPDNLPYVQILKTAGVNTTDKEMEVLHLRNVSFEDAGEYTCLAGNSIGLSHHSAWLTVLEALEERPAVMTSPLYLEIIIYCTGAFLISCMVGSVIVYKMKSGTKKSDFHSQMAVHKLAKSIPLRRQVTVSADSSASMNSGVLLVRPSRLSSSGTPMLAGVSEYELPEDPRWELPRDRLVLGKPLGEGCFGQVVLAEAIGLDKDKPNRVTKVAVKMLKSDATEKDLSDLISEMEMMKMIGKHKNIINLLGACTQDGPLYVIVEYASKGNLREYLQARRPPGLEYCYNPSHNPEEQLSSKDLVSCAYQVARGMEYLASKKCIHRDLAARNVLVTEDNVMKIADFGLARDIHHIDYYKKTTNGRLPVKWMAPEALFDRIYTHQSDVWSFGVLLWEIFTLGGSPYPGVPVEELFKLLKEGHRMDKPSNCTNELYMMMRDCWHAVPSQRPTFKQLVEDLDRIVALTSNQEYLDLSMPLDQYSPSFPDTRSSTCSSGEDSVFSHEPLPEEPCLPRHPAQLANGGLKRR
Casein kinase I isoform alpha, sequence (P48729 whole entry, canonical isoform): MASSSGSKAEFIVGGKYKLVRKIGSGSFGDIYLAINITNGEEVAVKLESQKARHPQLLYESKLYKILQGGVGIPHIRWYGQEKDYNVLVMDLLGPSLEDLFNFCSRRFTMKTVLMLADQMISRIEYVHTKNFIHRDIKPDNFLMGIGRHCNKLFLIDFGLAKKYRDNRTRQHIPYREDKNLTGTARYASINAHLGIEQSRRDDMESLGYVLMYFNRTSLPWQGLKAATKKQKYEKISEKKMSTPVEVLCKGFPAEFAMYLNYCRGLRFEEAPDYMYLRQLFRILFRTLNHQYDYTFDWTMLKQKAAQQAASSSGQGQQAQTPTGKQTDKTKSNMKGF
Sphingosine 1-phosphate receptor 2, sequence (O95136 whole entry): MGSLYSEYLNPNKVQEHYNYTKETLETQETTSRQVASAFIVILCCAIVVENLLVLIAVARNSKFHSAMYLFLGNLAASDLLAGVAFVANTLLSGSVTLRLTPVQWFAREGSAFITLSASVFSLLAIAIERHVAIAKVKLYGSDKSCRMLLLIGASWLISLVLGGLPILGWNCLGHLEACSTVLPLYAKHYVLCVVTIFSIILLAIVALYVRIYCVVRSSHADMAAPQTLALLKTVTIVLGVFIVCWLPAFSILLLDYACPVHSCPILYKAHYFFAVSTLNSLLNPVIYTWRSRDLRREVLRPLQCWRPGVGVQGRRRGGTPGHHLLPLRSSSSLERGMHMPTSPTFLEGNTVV

In the case of `c1ccc(-c2nc(NCCCn3ccnc3)c3ccccc3n2)cc1`, the IC50 [1] is reported as 20.1 µM (active), the IC50 [2] is reported as 13.9 µM (active) and the AC50 [3] is reported as 11.2 µM (active). For the same compound, the IC50 [4] was 39 µM (inactive) and the AC50 [5] was 8.78 µM (active).
For `COc1ccc(C)cc1Nc1n[n+](-c2ccccc2)c(-c2ccc(SC)cc2)s1`, the EC50 [6] was 15.5 µM (active).
In the case of `COc1ccc2oc(C(=O)Nc3nc(-c4ccccn4)cs3)c(C)c2c1`, the EC50 [7] is reported as 1.52 µM (active), the IC50 [8] is reported as 34.1 µM (active) and the EC50 [9] is reported as 18.9 µM (active). The EC50 [10] was 1.22 µM (active), the IC50 [11] was > 100 µM (inactive) and the EC50 [12] was 0.915 µM (active). The IC50 [13] was 69.4 µM (active).
In the case of `Nc1ncnc2nc3ccccc3n12`, the Ki [14] is reported as 20 µM (active), the Ki [15] is reported as > 79.4 µM (inactive) and the Ki [16] is reported as > 79.4 µM (inactive). The Ki [17] was > 79.4 µM (inactive), the Ki [18] was > 100 µM (inactive) and the Ki [19] was > 100 µM (inactive). For the same compound, the Ki [20] was 7.94 µM (active), the Ki [21] was > 79.4 µM (inactive) and the Ki [22] was > 79.4 µM (inactive). For the same compound, the Ki [23] was > 79.4 µM (inactive), the Ki [24] was 39.8 µM (active) and the Ki [25] was 63.1 µM (active). For the same compound, the Ki [26] was > 79.4 µM (inactive), the Ki [27] was 20 µM (active) and the Ki [28] was > 79.4 µM (inactive). For the same compound, the Ki [29] was 39.8 µM (active) and the Ki [30] was > 79.4 µM (inactive).
For `CCc1nc2sc3c(c2c2nnc(SC)n12)CCC(C)C3` (stereo unspecified), the IC50 [31] was > 99 µM (inactive) and the IC50 [32] was > 99 µM (inactive).
For `CC(C)c1cc(C(=O)N(C2CCCCC2)C2CCCCC2)no1`, the EC50 [33] was > 50 µM (inactive) and the EC50 [34] was > 50 µM (inactive).
In the case of `Cc1c(CNCc2cccc(Br)c2)c(C(=O)O)c(C)n1Cc1ccc(F)cc1`, the IC50 [35] is reported as > 99 µM (inactive) and the IC50 [36] is reported as > 99 µM (inactive).
